This note sets out measurements from ChEMBL document CHEMBL1201862, “PubChem BioAssay data set” (2004).

Among the test systems are A498; ACHN; COLO 205; DU-145; HCT-116; HOP-62; HOP-92; HT-29; MCF7; MDA-MB-435; MOLT-4; Malme-3M; NCI-H226; NCI/ADR-RES; OVCAR-4; RPMI-8226; SF-295; SK-MEL-5; U-251; HCC 2998.
Experiment in all cases: NCI-60 cell line screen, 48 h

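Results reflect a 48-hour exposure of cells in 96-well plates to compound at five concentrations. GI50: concentration for 50% inhibition of growth.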 The source made the active and inactive calls. Cut-off read from the data, not from the text of the source: active = GI50 up to about 1.1 µM and inactive = higher.

Consider `c1cc(-c2cnc(-c3ccc4c(c3)CCCO4)o2)ccn1`, for which the GI50 in the test with A498 was 12.3 µM (inactive); in the test on ACHN, 14 µM (inactive); in the test with COLO 205 it was 18.5 µM (inactive); in the test with DU-145, 11.3 µM (inactive); in the test with HCT-116, 16.7 µM (inactive); with HOP-62, 16.5 µM (inactive). Besides, the GI50 in the test with HOP-92 is 22.9 µM (inactive); in the test on HT-29, 16.8 µM (inactive); with MCF7, 14.7 µM (inactive); in the test with MDA-MB-435, 15.1 µM (inactive); in the test on MOLT-4 it was 5.62 µM (inactive); in the test on Malme-3M, 16.7 µM (inactive). For the same compound, the GI50 with NCI-H226 is 15.3 µM (inactive); in the test on NCI/ADR-RES it was 17.1 µM (inactive); in the test on OVCAR-4, 14.1 µM (inactive); with RPMI-8226, 6.24 µM (inactive); in the test with SF-295 it was 20 µM (inactive); in the test with SK-MEL-5, 12.6 µM (inactive). Further, the GI50 with U-251 is 16.7 µM (inactive).

Turning to `Nc1ccc2[nH]cc(CCC(=O)O)c2c1`, the GI50 in the test on A498, in the test on ACHN, with COLO 205, in the test with DU-145, in the test with HCT-116 and in the test on HOP-62 was > 100 µM (inactive) throughout. The GI50 is > 100 µM (inactive) in the test with HT-29; > 100 µM (inactive) with MCF7; > 100 µM (inactive) in the test with MDA-MB-435; > 100 µM (inactive) with MOLT-4; 28.8 µM (inactive) in the test on Malme-3M; > 100 µM (inactive) in the test with NCI-H226. Further, the GI50 with NCI/ADR-RES, in the test on OVCAR-4, with RPMI-8226, in the test on SF-295, in the test on SK-MEL-5 and in the test with U-251 was > 100 µM (inactive) in each case.

Consider `Cc1cc(Cl)ccc1OCC(=O)Nc1nc(N)nc(N)n1`, for which the GI50 in the test with A498, in the test with ACHN, in the test with COLO 205, with DU-145, in the test with HCT-116 and with HOP-62 was > 100 µM (inactive) in each case. Moreover, the GI50 in the test with HOP-92, in the test on HT-29, in the test with MCF7, in the test on MDA-MB-435, with MOLT-4 and in the test with Malme-3M was > 100 µM (inactive) in each case. The GI50 in the test on NCI-H226, in the test with NCI/ADR-RES, with OVCAR-4, with RPMI-8226, in the test with SF-295 and with SK-MEL-5 was > 100 µM (inactive) each time. For the same compound, in the test on U-251, the GI50 is > 100 µM (inactive).

On to `Cc1n2nc(N)sc2n[n+]1CC(=O)c1ccccc1`, for which the GI50 in the test on A498, in the test with ACHN, in the test on COLO 205, in the test with DU-145, in the test on HCC 2998 and in the test with HCT-116 was > 100 µM (inactive) throughout. In addition, the GI50 with HOP-62, in the test on HT-29, in the test with MCF7, with MDA-MB-435, in the test with MOLT-4 and with Malme-3M was > 100 µM (inactive) in each case. Besides, the GI50 in the test with NCI-H226, with NCI/ADR-RES, in the test with OVCAR-4, in the test with RPMI-8226, in the test with SF-295 and with SK-MEL-5 was > 100 µM (inactive) each time. For the same compound, in the test on U-251, the GI50 is > 100 µM (inactive).

Turning to `N=c1oc2ccc3ccccc3c2cc1-c1nc(O)c2ccccc2n1`, the GI50 was 11.1 µM (inactive) with ACHN; > 100 µM (inactive) with COLO 205; 36.4 µM (inactive) in the test on DU-145; 29.6 µM (inactive) in the test with HCC 2998; 24.4 µM (inactive) with HCT-116; 15.8 µM (inactive) in the test on HOP-62. Besides, the GI50 with HOP-92 is 15.1 µM (inactive); in the test on HT-29, 13 µM (inactive); in the test on MCF7, 14.4 µM (inactive); with MDA-MB-435 it was 58.3 µM (inactive); in the test with MOLT-4 it was 15.8 µM (inactive); in the test with Malme-3M, 23.4 µM (inactive). Besides, the GI50 in the test with NCI-H226 is 37.1 µM (inactive); with NCI/ADR-RES, 14.2 µM (inactive); in the test with OVCAR-4 it was 20.6 µM (inactive); with RPMI-8226, 42.6 µM (inactive); in the test on SF-295, 30.2 µM (inactive); in the test with SK-MEL-5, 44.5 µM (inactive). Moreover, in the test on U-251, the GI50 is 19.2 µM (inactive).

Regarding `CCOC(=O)C1CCC/C1=N\NC(=N)N.Cc1cc(O)c(C(C)C)cc1S(=O)(=O)O` (configuration not stated), the GI50 in the test on A498, in the test on ACHN, in the test on COLO 205, in the test with DU-145, with HCC 2998 and with HCT-116 was > 100 µM (inactive) each time. Further, the GI50 in the test with HOP-62, with HT-29, with MCF7, in the test with MDA-MB-435, in the test with MOLT-4 and in the test with Malme-3M was > 100 µM (inactive) throughout. The GI50 with NCI-H226, in the test on NCI/ADR-RES, in the test on OVCAR-4, with RPMI-8226, in the test on SF-295 and with SK-MEL-5 was > 100 µM (inactive) in each case. The GI50 with U-251 was > 100 µM (inactive).

Take `CCn1c2ccccc2c2cc(Nc3cc(C)[nH]c(=O)n3)ccc21`: the GI50 with A498, in the test with ACHN, in the test with COLO 205, with DU-145, in the test on HCC 2998 and with HCT-116 was > 100 µM (inactive) in each case. For the same compound, the GI50 in the test on HOP-62 is > 100 µM (inactive); in the test on HOP-92 it was > 100 µM (inactive); with HT-29 it was > 100 µM (inactive); with MCF7 it was > 100 µM (inactive); in the test with MDA-MB-435 it was 0.33 µM (active); with NCI/ADR-RES, > 100 µM (inactive). In addition, the GI50 in the test with OVCAR-4 was > 100 µM (inactive); in the test with SF-295, 4.53 µM (inactive); with U-251 it was > 100 µM (inactive).

For `COc1cccc2c1C(=O)c1ccc3cc(CO)cc(O)c3c1C2=O`, the GI50 is 3.52 µM (inactive) in the test on A498; 0.509 µM (active) in the test with ACHN; 1.53 µM (inactive) in the test with COLO 205; 0.733 µM (active) in the test on DU-145; 0.252 µM (active) with HCT-116; 2.09 µM (inactive) in the test with HOP-62. The GI50 was 0.573 µM (active) in the test with HOP-92; 0.813 µM (active) with HT-29; 0.41 µM (active) in the test with MCF7; 0.201 µM (active) in the test on MDA-MB-435; 0.405 µM (active) in the test on MOLT-4; 0.046 µM (active) in the test with Malme-3M. In addition, the GI50 in the test on NCI-H226 is 0.908 µM (active); with NCI/ADR-RES, 0.515 µM (active); with OVCAR-4, 0.652 µM (active); in the test with RPMI-8226, 0.74 µM (active); with SF-295, 3.03 µM (inactive); in the test with SK-MEL-5 it was 0.139 µM (active). The GI50 in the test with U-251 is 1.45 µM (inactive).
